# Like-named read-outs stand apart in the source and are kept apart here.
# What was measured:
# SK-MEL-28 cells = assay: HGF-stimulated melanoma proliferation cell assay; assay type: cell-based; conditions: Homo sapiens, 72 h
# Experimental: SK-MEL-28 cells were added to 96-well plates (2,500 cells/well). Effects on cell proliferation were assessed by incubation of SK-MEL-28 cells in complete media, media containing 50 ng/mL HGF, or media mixed 1:1 with MRC-5 fibroblast-conditioned media. Plates were incubated for 72 h.
# [1] = test system: SK-MEL-28 and SK-MEL-5 cells (pERK, pMET, AKT); assay: HGF-stimulated melanoma cell signal transduction assay; assay type: cell-based; conditions: 50 nM
# Experimental: SK-MEL-5 and SK-MEL-28 cells were added to 12-well plates at 450,000 and 250,000 cells/well, respectively, and incubated overnight. […] Cells were then stimulated with 50 ng/mL HGF for 1 hr. Antibodies were obtained from Cell Signaling Technology.
# PyMT mammary tumor = assay: PyMT syngeneic breast cancer model; assay type: in vivo, mice
# Experimental: Female FVB/NJ mice were implanted in the 4th mammary fat pad with one million cells that had been dissociated from tumor fragments from MMTV-PyMT donor mice. […] Mice (n=10/group) were dosed for three weeks, then, primary tumor and lungs were collected and fixed. Lung sections were stained with H&E at Premier Laboratory. Lung metastases (≧10 cells) were counted manually via microscopy. Data were analyzed via one-way analysis of variance (ANOVA), with post-hoc analysis by the method of Holm-Sidak. For analysis of TIE2-positive macrophages, tumor sections were stained with TIE2 and CD31 antibodies at Premier Laboratory. The density of TIE2-positive cells at the stroma/tumor boundary in each tumor was scored using 0=no staining, 1=low, 2=medium, and 3=high.
# U87-MG xenograft glioma = assay: Orthotopic U87-MG xenograft efficacy model (BLI); assay type: in vivo, mice; conditions: after two weeks of treatment; bevacizumab 5 mg/kg IP every three days; Compound 1 10 mg/kg BID
# Experimental: Protocol for in vivo xenograft efficacy study. […] Treatments began on Day 31.
# The tumor cells were injected intracerebroventricularly (ICV) and tumor growth was monitored in vivo by quantitation of luciferase-mediated BLI.
# [2] = test system: circulating TIE2+ and TIE2+/MET+ monocytes; assay: Flow cytometry of circulating TIE2/MET-expressing monocytes from U87-MG xenograft model; assay type: in vivo, mice; conditions: single agents; after five weeks of treatment
# Experimental: Flow cytometry of circulating TIE2/MET-expressing monocytes from U87-MG xenograft model. Peripheral blood samples were fixed using Lyse/Fix buffer (BD Biosciences, San Jose, Calif.). BD Fc Block was added and cells were stained with CD11b-PECy7 and Gr1-APC antibodies (BD Pharmingen), and TIE2-PE and MET-FITC antibodies (eBioscience) or isotype controls. Data was collected on an Accuri C6 cytometer. Monocytes were gated using side and forward scatter.
# To monitor these monocytes in the U87 survival model, peripheral monocytes were gated on CD11b+/Grl-surface markers and TIE2^+ and/or TIE2^+/MET^+ cells quantitated. In the U87 glioma survival study, we observed both of these TIE2^+ expressing monocyte populations in the circulation of vehicle-treated mice after five weeks of treatment. […] The lowered population of both of these TIE2^+ monocyte populations in the combination cohort was consistent with greater survival benefit (FIG. 6).
# GSC11 glioblastoma cells = assay: GSC11 glioma stem cell patient-derived xenograft model (tumor volume, immunohistochemistry); assay type: in vivo, mice
# Experimental: (§1) For the in vivo experiments, 4- to 6-week-old female nude mice that were strictly inbred at The University of Texas MD Anderson Cancer Center and maintained in the MD Anderson Veterinary in accordance with institutional guidelines were used. For the in vivo experiments, GSC11 (5×10^5) or GSC17 (5×10^4) glioblastoma cells were implanted intracranially into nude mice. […] Control mice for these cohorts were treated with phosphate-buffered saline by i.p. injection and/or with 0.4% HPMC vehicle by oral gavage. One cohort of 10 mice per group were treated continuously and followed for survival. A separate cohort of 9 mice per group were treated continuously until the designated time point, and the tumors from these mice were extracted at 3, 4, 5 weeks in GSC11 xenograft mice model and at 3.5, 4.5, 5.5 weeks in GSC17 xenograft mice model after the start of treatment.
# (§2) When the mice treated for the designated time period developed signs and symptoms of advanced tumors, they were euthanized, and their brains were removed, fixed in 4% formaldehyde for 24 hours, and embedded in paraffin. The tissues were then sectioned serially (4 μm) and stained with hematoxylin and eosin (Sigma-Aldrich). Tumor formation and phenotype were determined by histologic analysis of the hematoxylin- and eosin-stained sections. The tumor volume, greatest longitudinal diameter (length), and greatest transverse diameter (width) were measured using an external caliper and Adobe Illustrator software. The tumor volumes were calculated by the following formula: volume=½(length×width^2).
# (§3) For immunohistochemical analyses, the tissue sections were deparaffinized and subjected to graded rehydration. After blocking the tissue in 5% horse and goat serum and antigen retrieval solution (citrate buffer, pH 6.0), we incubated the tissue sections overnight at 4° C. with primary antibodies against Factor VIII (1:500; A0082, Dako) to assess microvessel formation, vimentin (1:100; M0725, Dako) to assess mesenchymal marker expression, F4/80 (1:50; 123102, BioLegend) to assess monocyte infiltration, nestin (1:300; Ab6142, Abcam) to assess glioma stem cell marker expression, HGF (1:200; LS-B4657, LSBio), and TIE2 (1:50; Santa Cruz Biotechnology) to assess TIE2-expressing monocyte infiltration. Texas red fluorescein isothiocyanate-conjugated secondary antibodies or anti-rat immunoglobulin G antibodies (Invitrogen) were used for 1 hour at room temperature.
# (§4) All statistical analyses were conducted with the GraphPad 6 (InStat) software for Windows 7. Survival analysis was conducted using the Kaplan-Meier method, and differences in survival between treatment groups were assessed using the log-rank test. All other comparisons were performed using an unpaired two-tailed Student t-test. Summary statistics for continuous data are expressed as the mean±standard error of the mean. P values less than 0.05 were considered statistically significant. The nestin staining was assessed using the Image-Pro Plus system version 7.0 (Media Cybernetics) in ×10 fields of at least three tumor samples per group with three to four different sections per tumor sample.
# GSC17 glioblastoma cells = assay: GSC17 glioma stem cell patient-derived xenograft model (tumor volume, immunohistochemistry); assay type: in vivo, mice
# Experimental: as §1, §2, §3, §4
compound,measurement,setting,value
CC(C)(C)c1nc(-c2cccc(NS(=O)(=O)c3c(F)cccc3F)c2F)c(-c2ccnc(N)n2)s1 [dabrafenib],IC50,"SK-MEL-28 cells; 50 ng/mL HGF or MRC-5 fibroblast-conditioned media, read-out: IC50, proliferation of SK-MEL-28 with HGF or fibroblast-conditioned media",> 10 µM
same,IC50,"SK-MEL-28 cells; complete media, read-out: IC50, proliferation of SK-MEL 28",0.0106 µM
same,Phosphorylation of ERK upon HGF stimulation,[1]; 50 ng/mL HGF 1 hr,ERK remained fully phosphorylated
same,Phosphorylation of ERK,[1]; no HGF,inhibited phosphorylation
"CC(=O)O[C@H]1C(=O)[C@@]2(C)[C@H]([C@H](OC(=O)c3ccccc3)[C@]3(O)C[C@H](OC(=O)[C@H](O)[C@@H](NC(=O)c4ccccc4)c4ccccc4)C(C)=C1C3(C)C)[C@]1(OC(C)=O)CO[C@@H]1C[C@@H]2O [paclitaxel, reference compound]",Tumor growth inhibition (TGI),"PyMT mammary tumor; after dosing for three weeks, paclitaxel 10 mg/kg i.v. every 5 days, Compound 1 15 mg/kg twice daily",42%
same,Reduction of TIE2 score (stromal density of TIE2+ cells),PyMT mammary tumor; same dosing,did not reduce
same,Reduction of lung metastases compared to controls,PyMT mammary tumor; same dosing,64%
bevacizumab [reference compound],Decrease in BLI signal compared to vehicle,U87-MG xenograft glioma,63%
same,Numbers of circulating TIE2+ and TIE2+/MET+ monocyte populations,[2],did not alter
same,Tumor volume at 3 weeks,"GSC11 glioblastoma cells; GSC11, bevacizumab 10 mg/kg i.p. twice per week, Compound 1 10 mg/kg oral twice daily",14.3±6.9 mm^3
same,Tumor volume at 4 weeks,"GSC11 glioblastoma cells; GSC11, same dosing",30.7±4.2 mm^3
same,Tumor volume at 5 weeks,"GSC11 glioblastoma cells; GSC11, same dosing",46.6±4.5 mm^3
same,Factor VIII-positive area,GSC11 glioblastoma cells; GSC11 model,3.3±1.1%
same,Nestin-positive area,GSC11 glioblastoma cells; GSC11 xenograft mouse model,59.8±6.0%
same,Mesenchymal tumor marker vimentin / EMT (immunohistochemistry),GSC11 glioblastoma cells; GSC-11 glioma model,therapy-induced increase in EMT
same,Macrophage infiltration into tumor (F4/80 IHC staining),GSC11 glioblastoma cells; GSC-11 glioma xenograft model,stimulating the influx of tumor-promoting macrophages
same,Tumor volume at 3.5 weeks,"GSC17 glioblastoma cells; GSC17, bevacizumab 10 mg/kg i.p. twice per week, Compound 1 10 mg/kg oral twice daily",0.4±0.4 mm^3
same,Tumor volume at 4.5 weeks,"GSC17 glioblastoma cells; GSC17, same dosing",0.05±0.03 mm^3
same,Tumor volume at 5.5 weeks,"GSC17 glioblastoma cells; GSC17, same dosing",9.6±4.6 mm^3
same,Factor VIII-positive area,GSC17 glioblastoma cells; GSC17 xenograft mouse model,3.0±0.3%
same,Nestin-positive area,GSC17 glioblastoma cells; GSC17 xenograft mouse model,20.6±2.7%
same,Mesenchymal tumor marker vimentin / EMT (immunohistochemistry),GSC17 glioblastoma cells; GSC-17 glioma model,therapy-induced increase in EMT
same,Tumor infiltration of TIE2-positive/F4/80-positive cells,GSC17 glioblastoma cells; GSC-17 glioma xenograft model,increased
